Values quoted from earlier work as cited in patent publication US20150157610A1, “PHARMACEUTICAL COMPOSITION FOR TREATING INFLAMMATORY DISEASE” (OSAKA UNIVERSITY, priority 2012, published 2015).

Test system: fulminant myocarditis
Settings: experimental, Non Patent Literature 2 and 3

For `CCCCCCCCc1ccc(CCC(N)(CO)CO)cc1` [FTY720], the “efficacy against fulminant myocarditis” value is listed as “experimentally effective”.
